# Reference: paper PMC6337497 (International Journal of Molecular Sciences, 2018)
# Experiments:
# Format in all cases: cell-based, Human
# [1] = test system: DU145 cells; experiment: RT-qPCR gene transcription, DU145; conditions: DU145, 48 h at GI50 dose
# Protocol: Data are presented as relative transcript levels, normalized with RPL21 housekeeping gene, with DMSO levels arbitrarily set at 1.
# RNA was extracted from cells using RNeasy kit (Qiagen, Venlo, The Netherlands) and reversed transcribed with a Moloney murine leukemia virus reverse transcriptase (Promega, Madison, WI, USA). Quantitative real-time PCRs were performed using SsoAdvanced Universal SYBR Green Supermix (Bio-Rad, Hercules, CA, USA) on a Bio-Rad CFX Connect™ real-time PCR detection system. Primer sequences are available upon request. The housekeeping gene Rpl21 was used as a loading control. The relative fold change enrichments of real-time PCR samples were calculated with the formula 2^−(ΔΔCt), where −(ΔΔCt) = −[(Ct target − Ct Rpl21)treated − (Ct target − Ct Rpl21)DMSO].
# [2] = test system: PC3 cells; experiment: Cell migration (wound) assay, PC3; conditions: PC3, GI50 dose, 40 h
# Protocol: 4 × 10^5 prostate cancer cells were plated in a 12-well plate. Approximately 24 h later, when the cells were 100% confluent, the monolayer was scratched using a 200 µL pipette tip. […] Three biological replicates were performed. Three random pictures were taken for each treated well per experiment and the areas of the wounds measured using ImageJ software. The percentage of wound recovery was then calculated using the formula: (final area-initial area)/initial area × 100%.
# [3] = test system: DU145 cells; experiment: Cell cycle analysis (propidium iodide), DU145; conditions: DU145, 48 h at GI50 dose
# Protocol: Cells were harvested after 48 h drug treatments and DNA distribution analysis of cells stained with propidium iodide solution (propidium iodide 25 µg/mL, Na-Citrate 3.4 mM, NaCl 9.65 mM, NP-40 0.03%) was performed by an Epics cytofluorimeter (Beckman Coulter Srl, Milan, Italy).
# [4] = test system: PC3 cells; experiment: K3F21/docetaxel co-administration, MTT and CompuSyn, PC3; conditions: PC3, K3F21/DTX combinations
# Protocol: The inhibition of cell proliferation was measured by colorimetric MTT assay and the concentration at which cellular growth is inhibited by 50% (GI50) was determined. Briefly, cells were seeded into 96-well plates at a density of 2000 cells/well. The following day, cells were treated with the indicated compounds and analyzed for cell viability after 48 h. 5 mg/mL thiazolyl blue tetrazolium bromide (Sigma-Aldrich, St. Louis, MO, USA) was added to each well at a final concentration of 0.5 mg/mL and the plates were incubated at 37 °C for 2 h. Medium containing unconverted MTT was removed and 100 µL MTT solvent (4 mM HCl, 0.1% NP-40 in isopropyl alcohol) was added to each well. The plate was gently rotated on an orbital shaker in the dark for 15 min, before the measurements of absorbance at 570 nm. The viability of untreated cells was arbitrarily set at 100%.
# The ability of K3F21 and docetaxel to act synergistically with regard to growth inhibition was determined using CompuSyn software (ComboSyn, Inc., freely available at http://www.combosyn.com). Combination index (CI) and drug reduction index (DRI) were calculated for each concentration of drugs mixture, as indicated in the text. CI <1, =1 or >1 indicates synergism, additive effect, or antagonism, respectively. DRI >1 or <1 indicates favorable or not favorable dose-reduction.
structure (smiles),measurement,setting,value
COc1cc(/C=C/C(=O)C(CCCN2C(=O)c3ccccc3C2=O)C(=O)/C=C/c2ccc(O)c(OC)c2)ccc1O [K3F21],EGFR expression,[1],reduced
same,Noxa transcription,[1],induced
same,Puma transcription,[1],increased exclusively following K3F21 administration
same,transcription of CDK inhibitors p21 and p27,[1],raised only after K3F21 treatment
same,"transcription of Cdc2, CyclinB1, CyclinB2, and CyclinD1 cell cycle genes",[1]; compared to curcumin and control cells,"general decrease, though not always significant"
same,cell migration (wound recovery),[2],exerted inhibitory effects on the migratory capacity
same,effect on cell cycle distribution (in words),[3],both arrested the G2/M progression and induced cell death
same,cell growth of co-administration compared to single administration,[4],none of the evaluated K3F21/DTX combinations affected cell growth
